Several values for one entry are separate records, joined by “and”; a condition that tells them apart may be missing. Identical values can stand only once.
Legend:
Assay type in all cases: cell-based, human
RV-specific CD4+ T cells [1] = assay: Direct ex vivo pMHCII tetramer staining of non-stimulated PBMCs; parameters: key to Validated: Y means validated; settings: for Ex Vivo Frequency (# per 10^6 CD4): directly ex vivo, without culture, one value per subject
Text: (§1) Peptide libraries consisting of 20mers with a 12 amino acid overlap were generated to span the VP1, VP2 and VP4 protein sequences of RV-A16, and VP1 and VP2 protein sequences of RV-A39 (UniprotKB accession # Q82122, Q5XLP5). […] Biologically relevant pMHCII complexes were identified by tetramer-guided epitope mapping (TGEM). This involved 2 steps: First, PBMC cultures established from subjects with known HLA-DR types were stimulated with RV peptide pools derived from VP1, VP2, or VP4, and then stained with pMHCII tetramer pools composed of HLA-DR molecules corresponding to those expressed in the test subject; Second, positive signals were de-convoluted by repeating and staining with single-peptide tetramers. Tetramers that gave strong positive signals (˜1% of total CD4+ T cells) in the single peptide-tetramer screen in more than one subject, were then re-tested for their ability to detect RV-specific CD4+ T cells in non-stimulated PBMCs (denoted as ex vivo analysis) in multiple subjects.
(§2) All experiments were performed in subjects expressing HLA-DR molecules corresponding to the selected tetramer. Precursor frequencies of circulating tetramer+ cells were then calculated by established methods. Tetramer+ cells were phenotyped for surface markers by staining PBMCs with PE-conjugated tetramers, labeling with anti-PE magnetic beads, enriching with an AutoMACS separator (Miltenyi Biotec, Auburn, Calif., USA), and then counterstaining for surface markers. A tetramer displaying an irrelevant peptide, GAD555-567, was used as a staining control. For simplicity, identified RV-A16 peptide epitopes were given a numerical designation.

CD4+ T cells = assay: Tetramer-guided epitope mapping (TGEM): pMHCII tetramer staining of PBMC cultures stimulated with RV peptides; settings: one value per subject
Text: as §1, §2

RV-specific CD4+ T cells [2] = assay: Assay to assess T-cell cross-reactivity (14-day peptide stimulation of PBMCs, tetramer and cytokine staining); settings: PBMCs from HLA-DR*0401+ subjects stimulated 14 days
Procedure: RV-specific CD4+ T cells were expanded in vitro using established methods. Briefly, PBMCs from HLA-DRB 1*0401+ subjects were stimulated with RV-A39 VP2169-188, or else unstimulated, for 14 days. Supplemental IL-2 (10 U/ml) was given days 7-14. Cells were then stained with RV tetramers and re-stimulated with PMA and ionomycin in the presence of Brefeldin A before staining for intracellular cytokines. Cells were analyzed on a BD LSR Fortessa (UVA Flow Cytometry Core Facility) and data analysis was performed using FlowJo version 9.3.3 (Tree Star Inc., Ashland, Oreg.). Analysis and presentation of distributions was performed using SPICE version 5.3, downloaded from a National Institutes of Health website.

[3] = HLA allele 1*0101 tetramer, reliable ex vivo signal (tetramer+ cells ≥2 per million CD4+ T cells in ≥3 subjects)
[4] = HLA allele 1*0101 tetramer, tetramer-positive CD4+ T cells in peptide-stimulated PBMC cultures
[5] = HLA allele DRB5 tetramer, peptide-stimulated PBMC cultures
[6] = HLA allele 1*0701 tetramer, reliable ex vivo signal
[7] = HLA allele 1*0701 tetramer, peptide-stimulated PBMC cultures
[8] = HLA allele 1*1501 tetramer, peptide-stimulated PBMC cultures
[9] = HLA allele 1*1101 tetramer, peptide-stimulated PBMC cultures
[10] = HLA allele 1*0401 tetramer, peptide-stimulated PBMC cultures
[11] = HLA allele DRB5 tetramer, reliable ex vivo signal
[12] = HLA allele 1*0404 tetramer, peptide-stimulated PBMC cultures

Sequence: PHQFINLRSNNSATLIVPYV [VP2P24]
- Ex Vivo Frequency (# per 10^6 CD4) (RV-specific CD4+ T cells [1]; HLA allele 1*0101 tetramer): 17 # per 10^6 CD4 and 148 # per 10^6 CD4 and 26 # per 10^6 CD4
- Validated (RV-specific CD4+ T cells [1]; [3]): Y
- In Vitro Frequency (% CD4) (CD4+ T cells; [4]): 2.82 % CD4 and 3.17 % CD4 and 11.3 % CD4
- In Vitro Frequency (% CD4) (CD4+ T cells; [5]): 0 % CD4 (2×) and 0.67 % CD4

Sequence: PRFSLPFLSIASAYYMFYDG [VP1P23]
- Ex Vivo Frequency (# per 10^6 CD4) (RV-specific CD4+ T cells [1]; HLA allele 1*0101 tetramer): 3 # per 10^6 CD4 and 8 # per 10^6 CD4 and 13 # per 10^6 CD4 and 2 # per 10^6 CD4
- Validated (RV-specific CD4+ T cells [1]; [3]): Y
- Ex Vivo Frequency (# per 10^6 CD4) (RV-specific CD4+ T cells [1]; HLA allele 1*0701 tetramer): 3 # per 10^6 CD4 and 8 # per 10^6 CD4 and 13 # per 10^6 CD4 and 2 # per 10^6 CD4
- Validated (RV-specific CD4+ T cells [1]; [6]): Y
- Ex Vivo Frequency (# per 10^6 CD4) (RV-specific CD4+ T cells [1]; HLA allele DRB5 tetramer): 11 # per 10^6 CD4
- In Vitro Frequency (% CD4) (CD4+ T cells; [4]): 8.37 % CD4 and 0.35 % CD4 and 2.37 % CD4
- In Vitro Frequency (% CD4) (CD4+ T cells; [7]): 1.84 % CD4 and 0.74 % CD4
- In Vitro Frequency (% CD4) (CD4+ T cells; [8]): 0.28 % CD4 and 0.78 % CD4 and 0 % CD4
- In Vitro Frequency (% CD4) (CD4+ T cells; [5]): 2.03 % CD4 and 2.90 % CD4

Sequence: PSVEACGYSDRIIQITRGDS [VP2P1]
- In Vitro Frequency (% CD4) (CD4+ T cells; [9]): 1.59 % CD4 and 1.16 % CD4 and 0.66 % CD4

Sequence: QIRRKFEMFTYARFDSEITM [VP1P14]
- Ex Vivo Frequency (# per 10^6 CD4) (RV-specific CD4+ T cells [1]; HLA allele 1*0401 tetramer): 4 # per 10^6 CD4
- In Vitro Frequency (% CD4) (CD4+ T cells; [10]): 0.59 % CD4 and 0.96 % CD4

Sequence: QSGTNASVFWQHGQPFPRFS [VP1P21]
- Ex Vivo Frequency (# per 10^6 CD4) (RV-specific CD4+ T cells [1]; HLA allele DRB5 tetramer): 11 # per 10^6 CD4 and 28 # per 10^6 CD4 and 20 # per 10^6 CD4
- Validated (RV-specific CD4+ T cells [1]; [11]): Y
- In Vitro Frequency (% CD4) (CD4+ T cells; [5]): 3.91 % CD4 and 0.95 % CD4

Sequence: RGDSTITSQDVANAVVGYGV [VP2P3]
- Ex Vivo Frequency (# per 10^6 CD4) (RV-specific CD4+ T cells [1]; HLA allele 1*0404 tetramer): 36 # per 10^6 CD4 and 1 # per 10^6 CD4 and 38 # per 10^6 CD4 and 5 # per 10^6 CD4
- Validated (RV-specific CD4+ T cells [1]; HLA allele 1*0404 tetramer, reliable ex vivo signal): Y
- In Vitro Frequency (% CD4) (CD4+ T cells; [12]): 6.86 % CD4 and 1.61 % CD4

Sequence: RPPRAVQYSHTHTTNYKLSS [VP1P32]
- In Vitro Frequency (% CD4) (CD4+ T cells; [7]): 0.53 % CD4 and 0 % CD4

Sequence: SDDNWLNFDGTLLGNLLIFP [RV-A39 VP2169-188]
- cytokine profile of expanded RV-specific T cells (RV-specific CD4+ T cells [2]; PMA/ionomycin re-stimulation): a major IFN-γ+IL-4neg population, and minor populations expressing IL-17A and IL-21
- expansion of tetramer-positive RV-specific CD4+ T cells after peptide stimulation (RV-specific CD4+ T cells [2]; RV-A16 and RV-A39 VP2 tetramers): induced expansion of both RV-A16- and RV-A39-specific T-cells

Sequence: SDRIIQITRGDSTITSQDVA [VP2P2]
- Ex Vivo Frequency (# per 10^6 CD4) (RV-specific CD4+ T cells [1]; HLA allele 1*1101 tetramer): 8 # per 10^6 CD4 and 11 # per 10^6 CD4 and 15 # per 10^6 CD4
- Validated (RV-specific CD4+ T cells [1]; HLA allele 1*1101 tetramer, reliable ex vivo signal): Y
- In Vitro Frequency (% CD4) (CD4+ T cells; [9]): 2.18 % CD4 and 1.22 % CD4 and 2.28 % CD4

Sequence: SIASAYYMFYDGYDGDTYKS [VP1P24]
- In Vitro Frequency (% CD4) (CD4+ T cells; [8]): 0.31 % CD4 and 0 % CD4 (2×)

Sequence: SNNSATLIVPYVNAVPMDSM [VP2P25]
- Ex Vivo Frequency (# per 10^6 CD4) (RV-specific CD4+ T cells [1]; HLA allele 1*1501 tetramer): 31 # per 10^6 CD4 and 5 # per 10^6 CD4 and 13 # per 10^6 CD4 and 71 # per 10^6 CD4
- Validated (RV-specific CD4+ T cells [1]; HLA allele 1*1501 tetramer, reliable ex vivo signal): Y
- In Vitro Frequency (% CD4) (CD4+ T cells; [10]): 0 % CD4 and 0.46 % CD4
- In Vitro Frequency (% CD4) (CD4+ T cells; [8]): 2.26 % CD4 and 9.02 % CD4

Sequence: TSKGWWWKLPDALKDMGIFG [VP2P10]
- Ex Vivo Frequency (# per 10^6 CD4) (RV-specific CD4+ T cells [1]; HLA allele DRB5 tetramer): 60 # per 10^6 CD4 and 24 # per 10^6 CD4 and 136 # per 10^6 CD4
- Validated (RV-specific CD4+ T cells [1]; [11]): Y
- In Vitro Frequency (% CD4) (CD4+ T cells; [5]): 3.93 % CD4 and 4.49 % CD4 and 0.38 % CD4

Sequence: TSSNRFYTLDSKMWNSTSKG [VP2P8]
- Ex Vivo Frequency (# per 10^6 CD4) (RV-specific CD4+ T cells [1]; HLA allele 1*0404 tetramer): 2 # per 10^6 CD4
- In Vitro Frequency (% CD4) (CD4+ T cells; [12]): 0.77 % CD4 and 1.82 % CD4
- In Vitro Frequency (% CD4) (CD4+ T cells; [9]): 0 % CD4 (2×) and 0.26 % CD4

Sequence: TTRNDYAWQSGTNASVFWQH [VP1P20]
- In Vitro Frequency (% CD4) (CD4+ T cells; [4]): 18.7 % CD4 and 0 % CD4 (2×)

Sequence: VPYVNAVPMDSMVRHNNWSL [VP2P26]
- Ex Vivo Frequency (# per 10^6 CD4) (RV-specific CD4+ T cells [1]; HLA allele 1*0701 tetramer): 4 # per 10^6 CD4 and 16 # per 10^6 CD4 and 14 # per 10^6 CD4 and 5 # per 10^6 CD4
- Validated (RV-specific CD4+ T cells [1]; [6]): Y
- In Vitro Frequency (% CD4) (CD4+ T cells; [7]): 1.57 % CD4 and 0.84 % CD4

Sequence: VVTNDMGTLCSRIVTSEQLH [VP1P27]
- In Vitro Frequency (% CD4) (CD4+ T cells; [7]): 0 % CD4 and 0.13 % CD4
